Measurements reported in patent publication US12227496B2 (BRISTOL-MYERS SQUIBB COMPANY, priority 2019, dated 2025).

Target: T1, human FXR (Homo sapiens, UniProt Q96RI1)
T1 construct: expressed in transfected cells; host or cells: HEK293 cells stably carrying a 5xGal4-response-element firefly luciferase reporter, transiently transfected with pcDNA3.1-Gal4-FXR
T1 sequence (Q96RI1 262-486 limits assumed): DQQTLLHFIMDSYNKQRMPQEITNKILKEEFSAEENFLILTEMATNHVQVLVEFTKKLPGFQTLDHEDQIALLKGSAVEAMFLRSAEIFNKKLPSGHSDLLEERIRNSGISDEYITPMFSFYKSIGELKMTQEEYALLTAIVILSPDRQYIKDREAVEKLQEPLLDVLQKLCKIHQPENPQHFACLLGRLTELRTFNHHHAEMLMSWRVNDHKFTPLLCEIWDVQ
Test: transient human FXR/Gal4-luciferase reporter assay
Assay type: cell-based
Conditions: Gal4-hFXR LBD fusion, luciferase reporter in HEK293 cells; response relative to 8 μM GW-4064
Procedure: A Gal4-hFXR fusion construct reporter system was used as the primary assay to characterize compound activity. A construct including 5 copies of the Gal4 promoter response element upstream of a firefly luciferase reporter cDNA was stably expressed in HEK293 cells. This reporter cell line was maintained in Dulbecco's Modified Eagle's medium (DMEM; Gibco) supplemented with 1% penicillin-streptomycin (P/S) solution, 500 μg/mL Zeocin and 10% charcoal/dextran-treated fetal bovine serum (cs-FBS) at 37° C. in a humidified 5% CO2 atmosphere. […] The day prior to transfection, the reporter cells in culture are detached from the plate with trypsin and plated into a T75 flask at a sufficient density to achieve approximately 90% confluence the next morning. […] The mixture is further diluted with 10 mL of a solution comprised of DMEM, 10% cs-FBS, and 1% P/S immediately prior to transferring to the cells. The maintenance culture media is aspirated from the cells and the final transfection mixture is added before the cells are incubated overnight at 37° C. in a humidified 5% CO2 atmosphere. This protocol can be scaled up, and the transiently transfected cells can be cryopreserved in an assay-ready format. For compound testing, 100 nL of the compounds (serial dilutions in DMSO) are dispensed with an Echo acoustic dispenser (Labcyte) into the wells of a Corning/Costar clear bottom 384-well white plate. The transfected cells are harvested, counted, and diluted such that 10-25,000 cells in 25 μL are plated into each well of the 384-well compound assay plate. The compound-treated cells are incubated overnight at 37° C. in a humidified 5% CO2 atmosphere. The next morning 25 μL of Steady-Glo (Promega) are added to each well of the plate, the mixture is incubated for 15 min. with shaking, and luminescence is measured on an Envision (Perkin Elmer) plate reader.

EC50 | SMILES
0.226 µM | O=C(C1CCCOC1)N(CC12CCC(c3nc(C4CC4)no3)(CC1)CC2)c1cccc(-c2nc(C3CC3)no2)c1 (racemic) [Example 16, N-((4-(3-cyclopropyl-1,2,4-oxadiazol-5-yl)bicyclo[2.2.2]octan-1-yl)methyl)-N-(3-(3-cyclopropyl-1,2,4-oxadiazol-5-yl)phenyl)tetrahydro-2H-pyran-3-carboxamide]
0.074 µM | O=C(C1CCCOC1)N(CC12CCC(c3nc(C4CC4)no3)(CC1)CC2)c1cccc(-c2cnc(C3CC3)o2)c1 (racemic) [Example 25, N-((4-(3-cyclopropyl-1,2,4-oxadiazol-5-yl)bicyclo[2.2.2]octan-1-yl)methyl)-N-(3-(2-cyclopropyloxazol-5-yl)phenyl)tetrahydro-2H-pyran-3-carboxamide]
0.145 µM | CCCc1ncc(-c2cccc(N(CC34CCC(c5nc(C6CC6)no5)(CC3)CC4)C(=O)C3CCCOC3)c2)o1 (racemic) [Example 30, N-((4-(3-cyclopropyl-1,2,4-oxadiazol-5-yl)bicyclo[2.2.2]octan-1-yl)methyl)-N-(3-(2-propyloxazol-5-yl)phenyl)tetrahydro-2H-pyran-3-carboxamide]
1.33 µM | CCn1cc(-c2cccc(N(CC34CCC(c5nc(C6CC6)no5)(CC3)CC4)C(=O)C3CCCOC3)c2)oc1=O (racemic) [Example 52, N-((4-(3-cyclopropyl-1,2,4-oxadiazol-5-yl)bicyclo[2.2.2]octan-1-yl)methyl)-N-(3-(3-ethyl-2-oxo-2,3-dihydrooxazol-5-yl)phenyl)tetrahydro-2H-pyran-3-carboxamide]
0.929 µM | O=C(C1CCCOC1)N(CC12CCC(c3nc(C4CC4)no3)(CC1)CC2)c1cccc(-c2nnc(C3CC3)o2)c1 (racemic) [Example 55, N-((4-(3-cyclopropyl-1,2,4-oxadiazol-5-yl)bicyclo[2.2.2]octan-1-yl)methyl)-N-(3-(5-cyclopropyl-1,3,4-oxadiazol-2-yl)phenyl)tetrahydro-2H-pyran-3-carboxamide]
3.81 µM | CC1(C)CCCN(C(=O)N(CC23CCC(c4nc(C5CC5)no4)(CC2)CC3)c2cccc(-c3nc(C4CC4)no3)c2)C1 (racemic) [Example 62, N-((4-(3-cyclopropyl-1,2,4-oxadiazol-5-yl)bicyclo[2.2.2]octan-1-yl)methyl)-N-(3-(3-cyclopropyl-1,2,4-oxadiazol-5-yl)phenyl)-3,3-dimethylpiperidine-1-carboxamide]
0.74 µM | O=C(N1CCCC(CO)C1)N(CC12CCC(c3nc(C4CC4)no3)(CC1)CC2)c1cccc(-c2nc(C3CC3)no2)c1 (racemic) [Example 65, N-((4-(3-cyclopropyl-1,2,4-oxadiazol-5-yl)bicyclo[2.2.2]octan-1-yl)methyl)-N-(3-(3-cyclopropyl-1,2,4-oxadiazol-5-yl)phenyl)-3-(hydroxymethyl)piperidine-1-carboxamide]
1.25 µM | O=C(C1CCCOC1)N(CC12CCC(c3nc(C4CC4)cs3)(CC1)CC2)c1cccc(-c2nc(C3CC3)no2)c1 (racemic) [Example 66, N-(3-(3-cyclopropyl-1,2,4-oxadiazol-5-yl)phenyl)-N-((4-(4-cyclopropylthiazol-2-yl)bicyclo[2.2.2]octan-1-yl)methyl)tetrahydro-2H-pyran-3-carboxamide]
0.256 µM | Cn1nc(C23CCC(CN(C(=O)C4CCCOC4)c4cccc(-c5nc(C6CC6)no5)c4)(CC2)CC3)cc1C1CC1 (racemic) [Example 67, N-(3-(3-cyclopropyl-1,2,4-oxadiazol-5-yl)phenyl)-N-((4-(5-cyclopropyl-1-methyl-1H-pyrazol-3-yl)bicyclo[2.2.2]octan-1-yl)methyl)tetrahydro-2H-pyran-3-carboxamide]
4.1 µM | Cn1cc(-c2cccc(N(CC34CCC(c5nc(C6CC6)no5)(CC3)CC4)C(=O)C3CCCOC3)c2)nc1C1CC1 (racemic) [Example 68, N-((4-(3-cyclopropyl-1,2,4-oxadiazol-5-yl)bicyclo[2.2.2]octan-1-yl)methyl)-N-(3-(2-cyclopropyl-1-methyl-1H-imidazol-4-yl)phenyl)tetrahydro-2H-pyran-3-carboxamide]
0.589 µM | O=C(C1CCCOC1)N(CC12CCC(c3nc(C4CC4)no3)(CC1)CC2)c1cccc(-c2nc3cc(F)ccc3o2)c1 (racemic) [Example 92, N-((4-(3-cyclopropyl-1,2,4-oxadiazol-5-yl)bicyclo[2.2.2]octan-1-yl)methyl)-N-(3-(5-fluorobenzo[d]oxazol-2-yl)phenyl)tetrahydro-2H-pyran-3-carboxamide]
1.5 µM | CCc1noc(-c2cccc(N(C(=O)C3CCCCC3)C(C)C34CCC(c5nc(C)no5)(CC3)CC4)c2)n1 (single isomer, unassigned) [Example 70, N-(3-(3-ethyl-1,2,4-oxadiazol-5-yl)phenyl)-N-(1-(4-(3-methyl-1,2,4-oxadiazol-5-yl)bicyclo[2.2.2]octan-1-yl)ethyl)cyclohexanecarboxamide]
0.547 µM | CCc1noc(-c2cccc(N(C(=O)C3CCCCC3)C(C)C34CCC(c5nc(C)no5)(CC3)CC4)c2)n1 (single isomer, unassigned) [Example 71, N-(3-(3-ethyl-1,2,4-oxadiazol-5-yl)phenyl)-N-(1-(4-(3-methyl-1,2,4-oxadiazol-5-yl)bicyclo[2.2.2]octan-1-yl)ethyl)cyclohexanecarboxamide]
3.94 µM | COc1cccc(-c2cccc(N(C(=O)C3CCCCC3)C(C)C34CCC(c5nc(C)no5)(CC3)CC4)c2)c1 (single isomer, unassigned) [Example 94, N-(3′-methoxy-[1,1′-biphenyl]-3-yl)-N-(1-(4-(3-methyl-1,2,4-oxadiazol-5-yl)bicyclo[2.2.2]octan-1-yl)ethyl)cyclohexanecarboxamide]
6.67 µM | COc1cccc(-c2cccc(N(C(=O)C3CCCCC3)C(C)C34CCC(c5nc(C)no5)(CC3)CC4)c2)c1 (single isomer, unassigned) [Example 95, N-(3′-methoxy-[1,1′-biphenyl]-3-yl)-N-(1-(4-(3-methyl-1,2,4-oxadiazol-5-yl)bicyclo[2.2.2]octan-1-yl)ethyl)cyclohexanecarboxamide]
0.245 µM | COC(=O)C1CC1c1cccc(N(CC23CCC(c4nc(C)no4)(CC2)CC3)C(=O)C2CCCCC2)c1 (single isomer, unassigned) [Example 101, Methyl 2-(3-(N-((4-(3-methyl-1,2,4-oxadiazol-5-yl)bicyclo[2.2.2]octan-1-yl)methyl)cyclohexanecarboxamido)phenyl)cyclopropane-1-carboxylate]
0.518 µM | COC(=O)C1CC1c1cccc(N(CC23CCC(c4nc(C)no4)(CC2)CC3)C(=O)C2CCCCC2)c1 (single isomer, unassigned) [Example 102, Methyl 2-(3-(N-((4-(3-methyl-1,2,4-oxadiazol-5-yl)bicyclo[2.2.2]octan-1-yl)methyl)cyclohexanecarboxamido)phenyl)cyclopropane-1-carboxylate]
0.303 µM | CCOc1ccc(-c2cccc(N(CC34CCC(c5nc(C(C)(C)C)no5)(CC3)CC4)C(=O)C3CCC(OC)CC3)c2)cc1 (single isomer, unassigned) [Example 145, N-((4-(3-(tert-butyl)-1,2,4-oxadiazol-5-yl)bicyclo[2.2.2]octan-1-yl)methyl)-N-(4′-ethoxy-[1,1′-biphenyl]-3-yl)-4-methoxycyclohexane-1-carboxamide]
0.402 µM | CCOc1ccc(-c2cccc(N(CC34CCC(c5nc(C(C)(C)C)no5)(CC3)CC4)C(=O)C3CCC(OC)CC3)c2)cc1 (single isomer, unassigned) [Example 146, N-((4-(3-(tert-butyl)-1,2,4-oxadiazol-5-yl)bicyclo[2.2.2]octan-1-yl)methyl)-N-(4′-ethoxy-[1,1′-biphenyl]-3-yl)-4-methoxycyclohexane-1-carboxamide]
0.271 µM | CCOc1ccc(-c2cc(N(CC34CCC(c5noc(C(C)(F)F)n5)(CC3)CC4)C(=O)C3CCC(O)(C(F)(F)F)CC3)ccc2F)cc1 (single isomer, unassigned) [Example 164, N-((4-(5-(1,1-difluoroethyl)-1,2,4-oxadiazol-3-yl)bicyclo[2.2.2]octan-1-yl)methyl)-N-(4′-ethoxy-6-fluoro-[1,1′-biphenyl]-3-yl)-4-hydroxy-4-(trifluoromethyl)cyclohexane-1-carboxamide]
